Measurements published in patent EP4722212A1, “NOVEL COMPOUND FOR INHIBITING PROTEIN KINASES AND PHARMACEUTICAL COMPOSITION COMPRISING SAME” (Magicbullettherapeutics Co., Ltd., priority 2023, dated 2024).

Tests used:
BMX = molecular target: T1, BMX (Homo sapiens, UniProt P51813); assay: Enzyme activity inhibition (Reaction Biology); type: biochemical
T1 construct: purchased Reaction Biology (RBC)
T1 sequence (P51813 1-675): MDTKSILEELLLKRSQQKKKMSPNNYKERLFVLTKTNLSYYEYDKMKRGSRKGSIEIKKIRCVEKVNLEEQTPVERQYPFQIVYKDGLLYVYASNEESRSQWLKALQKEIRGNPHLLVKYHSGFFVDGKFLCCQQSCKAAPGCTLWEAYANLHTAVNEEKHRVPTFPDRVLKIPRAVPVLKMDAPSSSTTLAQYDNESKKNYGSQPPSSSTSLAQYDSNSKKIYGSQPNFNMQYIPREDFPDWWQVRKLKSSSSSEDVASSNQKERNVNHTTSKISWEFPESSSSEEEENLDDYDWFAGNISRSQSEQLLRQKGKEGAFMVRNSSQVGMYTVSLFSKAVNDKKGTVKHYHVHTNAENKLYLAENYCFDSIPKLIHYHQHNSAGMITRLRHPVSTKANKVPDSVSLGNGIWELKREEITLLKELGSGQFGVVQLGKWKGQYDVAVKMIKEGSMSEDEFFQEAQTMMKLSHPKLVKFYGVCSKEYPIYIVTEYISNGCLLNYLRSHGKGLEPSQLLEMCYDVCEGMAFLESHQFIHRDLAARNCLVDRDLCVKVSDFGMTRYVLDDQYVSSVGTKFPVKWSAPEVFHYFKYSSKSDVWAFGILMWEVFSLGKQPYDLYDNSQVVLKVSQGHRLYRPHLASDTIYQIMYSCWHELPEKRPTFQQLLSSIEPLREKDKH
Experimental: (§1) [* <10 nM: A, <100 nM: B, >100 nM: C]. [Table 7]

ACK1 = molecular target: T2, ACK1 (Homo sapiens, UniProt Q07912); assay: Enzyme activity inhibition (Reaction Biology); type: biochemical
T2 construct: purchased Reaction Biology (RBC)
Experimental: as §1

Src = molecular target: T3, Src (Homo sapiens, UniProt P12931); assay: Enzyme activity inhibition (Reaction Biology); type: biochemical
T3 construct: purchased Reaction Biology (RBC)
Experimental: as §1

C4-2B = assay: Cell line inhibition analysis (CCK-8, 72 h); type: cell-based; details: read-out: Cell growth inhibition GI50 C4-2B
Experimental: (§2) C4-2B and 22Rv1 cells were purchased from ATCC and cultured according to the manufacturer's instructions. The cells were seeded in 96-well plates at 7×10^3cells/100 µl/well and allowed to attach for one day. After removing the culture medium, 90 µl/well of fresh culture medium was added, followed by addition of 10 µl/well of culture medium containing compounds at nine concentrations (0.076-500 µM) serially diluted 3-fold and DMSO control to achieve final concentrations of 0-50 µM, and then cultured for 72 hours in a 37 °C CO2 incubator. Cell proliferation after 72 hours was assessed by adding 10 µl/well of CCK-8 solution, orbital shaking for 30 seconds, then incubating at 37 °C CO2 incubator for 2 hours and measuring absorbance at 450 nm using a microplate reader. The measured absorbance values were corrected by subtracting the absorbance of wells containing only culture medium and CCK-8 solution, and GI50 values were calculated using GraphPad Prism 8 software.
(§3) Meanwhile, in a separate 96-well plate, cells were seeded at 7 × 10^3 cells/100 µl/well, allowed to attach for one day, CCK-8 solution was added, and absorbance was measured to establish the 'Growth (%) = 0' value.

22Rv1 = assay: Cell line inhibition analysis (CCK-8, 72 h); type: cell-based; details: Homo sapiens; 22Rv1, 72 hours; read-out: Cell growth inhibition GI50 22Rv1
Experimental: as §2, §3

HCT-116 = assay: Cell line inhibition analysis (CCK-8, 72 h); type: cell-based; details: Homo sapiens, read-out: Cell growth inhibition GI50 HCT-116
Experimental: as §2, §3
(§4) Furthermore, experiments were conducted on A172, A549, HCI-H460, AsPC-1, MIA-Paca-2, DLD-1, HCT-116, HT-29, SW480, SW620, MDA-MB-231, and SKOV3 cell lines using the same method, with results shown in Tables 9 and 10 below [* <1 µM: A, <5 µM: B, <10 µM: C, >10 µM: D].

SW480 = assay: Cell line inhibition analysis (CCK-8, 72 h); type: cell-based; details: Homo sapiens, read-out: Cell growth inhibition GI50 SW480
Experimental: as §2, §3, §4

SW620 = assay: Cell line inhibition analysis (CCK-8, 72 h); type: cell-based; details: Homo sapiens, SW-620; read-out: Cell growth inhibition GI50 SW620
Experimental: as §2, §3, §4

AsPC-1 = assay: Cell line inhibition analysis (CCK-8, 72 h); type: cell-based; details: Homo sapiens, ASPC1; read-out: Cell growth inhibition GI50 AsPC-1
Experimental: as §2, §3, §4

T2 sequence (Q07912 whole entry): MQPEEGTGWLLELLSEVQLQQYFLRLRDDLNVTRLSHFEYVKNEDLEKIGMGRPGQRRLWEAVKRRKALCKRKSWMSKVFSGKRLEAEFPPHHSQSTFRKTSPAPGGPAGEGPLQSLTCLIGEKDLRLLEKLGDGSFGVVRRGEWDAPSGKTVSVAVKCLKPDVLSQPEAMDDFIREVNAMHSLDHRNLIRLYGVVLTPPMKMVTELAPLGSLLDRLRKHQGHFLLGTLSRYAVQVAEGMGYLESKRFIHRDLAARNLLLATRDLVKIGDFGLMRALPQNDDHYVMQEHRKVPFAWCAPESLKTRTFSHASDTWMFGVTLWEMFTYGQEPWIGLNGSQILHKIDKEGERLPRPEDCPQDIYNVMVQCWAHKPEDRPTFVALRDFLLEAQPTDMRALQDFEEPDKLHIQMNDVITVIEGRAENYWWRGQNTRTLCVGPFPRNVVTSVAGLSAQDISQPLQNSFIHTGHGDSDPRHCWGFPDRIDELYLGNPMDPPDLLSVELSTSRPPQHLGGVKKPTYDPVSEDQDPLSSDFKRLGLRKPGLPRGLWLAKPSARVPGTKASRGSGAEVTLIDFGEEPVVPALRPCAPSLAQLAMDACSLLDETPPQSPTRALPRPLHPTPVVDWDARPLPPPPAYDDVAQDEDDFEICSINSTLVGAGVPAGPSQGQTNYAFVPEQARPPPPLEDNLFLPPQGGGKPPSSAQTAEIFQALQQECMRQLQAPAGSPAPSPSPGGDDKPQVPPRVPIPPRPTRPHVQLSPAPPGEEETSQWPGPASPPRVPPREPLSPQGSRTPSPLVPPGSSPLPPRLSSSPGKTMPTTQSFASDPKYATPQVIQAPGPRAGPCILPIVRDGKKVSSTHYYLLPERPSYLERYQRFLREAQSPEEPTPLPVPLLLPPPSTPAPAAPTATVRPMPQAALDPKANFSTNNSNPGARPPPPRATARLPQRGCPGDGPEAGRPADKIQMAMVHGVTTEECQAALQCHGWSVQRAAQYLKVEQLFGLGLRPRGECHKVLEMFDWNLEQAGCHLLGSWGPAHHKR
T3 sequence (P12931 whole entry): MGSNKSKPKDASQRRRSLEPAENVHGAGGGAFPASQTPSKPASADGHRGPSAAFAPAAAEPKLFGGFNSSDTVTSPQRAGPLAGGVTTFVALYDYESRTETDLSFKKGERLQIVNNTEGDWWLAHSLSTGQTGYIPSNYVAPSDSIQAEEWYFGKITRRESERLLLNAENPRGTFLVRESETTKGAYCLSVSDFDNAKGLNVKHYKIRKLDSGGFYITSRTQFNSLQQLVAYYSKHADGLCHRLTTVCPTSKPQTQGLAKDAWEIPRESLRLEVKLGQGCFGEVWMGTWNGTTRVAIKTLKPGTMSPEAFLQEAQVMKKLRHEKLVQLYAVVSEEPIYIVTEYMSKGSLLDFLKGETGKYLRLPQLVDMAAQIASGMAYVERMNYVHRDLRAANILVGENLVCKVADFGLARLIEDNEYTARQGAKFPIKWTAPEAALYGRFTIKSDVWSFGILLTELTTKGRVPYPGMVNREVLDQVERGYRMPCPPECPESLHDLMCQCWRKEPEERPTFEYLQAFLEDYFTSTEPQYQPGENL

Cc1cc(Nc2ncc3c(n2)C2(CC2)C(=O)N(c2cc(NC(=O)c4cccc(C(F)(F)F)c4)ccc2C)C3)n(C)n1 [Compound 1, N-(3-(2'-((1,3-dimethyl-1H-pyrazol-5-yl)amino)-7'-oxo-5'H-spiro[cyclopropane-1,8'-pyrido[4,3-d]pyrimidin]-6'(7'H)-yl)-4-methylphenyl)-3-(trifluoromethyl)benzamide]
IC50 (BMX): < 0.01 µM
IC50 (ACK1): < 0.01 µM
IC50 (Src): < 0.01 µM
GI50 (C4-2B): 1 to 5 µM

Cc1ccc(NC(=O)c2ccc(F)c(C(F)(F)F)c2)cc1N1Cc2cnc(N)nc2C2(CC2)C1=O [Compound 4, N-(3-(2'-amino-7'-oxo-5'H-spiro[cyclopropane-1,8'-pyrido[4,3-d]pyrimidine]-6'(7'H)-yl)-4-methylphenyl)-4-fluoro-3-(trifluoromethyl)benzamide]
GI50 (22Rv1): 1 to 5 µM
GI50 (C4-2B): 1 to 5 µM

Cc1ccc(NC(=O)c2ccc(Cl)c(C(F)(F)F)c2)cc1N1Cc2cnc(N)nc2C2(CC2)C1=O [Compound 5, N-(3-(2'-amino-7'-oxo-5'H-spiro[cyclopropane-1,8'-pyrido[4,3-d]pyrimidine]-6'(7'H)-yl)-4-methylphenyl)-4-chloro-3-(trifluoromethyl)benzamide]
GI50 (22Rv1): 1 to 5 µM
GI50 (C4-2B): 1 to 5 µM

Cc1cn(-c2cc(C(=O)Nc3ccc(C)c(N4Cc5cnc(N)nc5C5(CC5)C4=O)c3)cc(C(F)(F)F)c2)cn1 [Compound 6, N-(3-(2'-amino-7'-oxo-5'H-spiro[cyclopropane-1,8'-pyrido[4,3-d]pyrimidine]-6'(7'H)-yl)-4-methylphenyl)-3-(4-methyl-1H-imidazol-1-yl)-5-(trifluoromethyl)benzamide]
IC50 (BMX): < 0.01 µM
IC50 (ACK1): < 0.01 µM
IC50 (Src): < 0.01 µM
GI50 (22Rv1): < 1 µM
GI50 (C4-2B): 1 to 5 µM

COc1cc(C(=O)Nc2ccc(C)c(N3Cc4cnc(N)nc4C4(CC4)C3=O)c2)cc(C(F)(F)F)c1 [Compound 19, N-(3-(2'-amino-7'-oxo-5'H-spiro[cyclopropane-1,8'-pyrido[4,3-d]pyrimidine]-6'(7'H)-yl)-4-methylphenyl)-3-methoxy-5-(trifluoromethyl)benzamide]
IC50 (BMX): < 0.01 µM
IC50 (ACK1): < 0.01 µM
IC50 (Src): < 0.01 µM
GI50 (22Rv1): 1 to 5 µM
GI50 (C4-2B): 1 to 5 µM

COc1ccc(-c2cc(C(=O)Nc3ccc(C)c(N4Cc5cnc(N)nc5C5(CC5)C4=O)c3)cc(C(F)(F)F)c2)cc1 [Compound 20, N-(3-(2'-amino-7'-oxo-5'H-spiro[cyclopropane-1,8'-pyrido[4,3-d]pyrimidine]-6'(7'H)-yl)-4-methylphenyl)-4'-methoxy-5-(trifluoromethyl)-[1,1'-biphenyl]-3-carboxamide]
IC50 (BMX): 0.01 to 0.1 µM
IC50 (ACK1): 0.01 to 0.1 µM
IC50 (Src): 0.01 to 0.1 µM
GI50 (C4-2B): < 1 µM

Cc1ccc(NC(=O)c2cc(C(F)(F)F)ccc2Cl)cc1N1Cc2cnc(N)nc2C2(CC2)C1=O [Compound 25, N-(3-(2'-amino-7'-oxo-5'H-spiro[cyclopropane-1,8'-pyrido[4,3-d]pyrimidine]-6'(7'H)-yl)-4-methylphenyl)-2-chloro-5-(trifluoromethyl)benzamide]
IC50 (BMX): > 0.1 µM
IC50 (ACK1): 0.01 to 0.1 µM
IC50 (Src): > 0.1 µM
GI50 (C4-2B): > 10 µM

Cc1ccc(NC(=O)c2cc(Cl)cc(C(F)(F)F)c2)cc1N1Cc2cnc(N)nc2C2(CC2)C1=O [Compound 26, N-(3-(2'-amino-7'-oxo-5'H-spiro[cyclopropane-1,8'-pyrido[4,3-d]pyrimidine]-6'(7'H)-yl)-4-methylphenyl)-3-chloro-5-(trifluoromethyl)benzamide]
IC50 (BMX): < 0.01 µM
IC50 (ACK1): 0.01 to 0.1 µM
IC50 (Src): < 0.01 µM
GI50 (22Rv1): < 1 µM
GI50 (C4-2B): < 1 µM

Cc1ccc(NC(=O)c2cc(N3CCOCC3)cc(C(F)(F)F)c2)cc1N1Cc2cnc(NC3CC3)nc2C2(CC2)C1=O [Compound 28, N-(3-(2'-(cyclopropylamino)-7'-oxo-5'H-spiro[cyclopropane-1,8'-pyrido[4,3-d]pyrimidine]-6'(7'H)-yl)-4-methylphenyl)-3-morpholino-5-(trifluoromethyl)benzamide]
IC50 (BMX): < 0.01 µM
IC50 (ACK1): 0.01 to 0.1 µM
IC50 (Src): > 0.1 µM
GI50 (C4-2B): 1 to 5 µM
GI50 (HCT-116): < 1 µM
GI50 (SW480): 1 to 5 µM
GI50 (SW620): 1 to 5 µM
GI50 (AsPC-1): 5 to 10 µM

Cc1ccc(NC(=O)c2cc(N3CCOCC3)cc(C(F)(F)F)c2)cc1N1Cc2cnc(N)nc2C2(CC2)C1=O [Compound 29, N-(3-(2'-amino-7'-oxo-5'H-spiro[cyclopropane-1,8'-pyrido[4,3-d]pyrimidine]-6'(7'H)-yl)-4-methylphenyl)-3-morpholino-5-(trifluoromethyl)benzamide]
IC50 (BMX): < 0.01 µM
IC50 (ACK1): 0.01 to 0.1 µM
IC50 (Src): < 0.01 µM
GI50 (C4-2B): 1 to 5 µM

COCCN(C)c1cc(C(=O)Nc2ccc(C)c(N3Cc4cnc(N)nc4C4(CC4)C3=O)c2)cc(C(F)(F)F)c1 [Compound 31, N-(3-(2'-amino-7'-oxo-5'H-spiro[cyclopropane-1,8'-pyrido[4,3-d]pyrimidine]-6'(7'H)-yl)-4-methylphenyl)-3-((2-methoxyethyl)(methyl)amino)-5-(trifluoromethyl)benzamide]
IC50 (BMX): < 0.01 µM
IC50 (ACK1): 0.01 to 0.1 µM
IC50 (Src): 0.01 to 0.1 µM
GI50 (C4-2B): 1 to 5 µM

Cc1ccc(NC(=O)c2cc(N(C)CCN(C)C)cc(C(F)(F)F)c2)cc1N1Cc2cnc(N)nc2C2(CC2)C1=O [Compound 37, N-(3-(2'-amino-7'-oxo-5'H-spiro[cyclopropane-1,8'-pyrido[4,3-d]pyrimidine]-6'(7'H)-yl)-4-methylphenyl)-3-((2-(dimethylamino)ethyl)(methyl)amino)-5-(trifluoromethyl)benzamide]
GI50 (C4-2B): > 10 µM

Cc1ccc(NC(=O)c2cccc(C(F)(F)F)c2)cc1N1Cc2cnc(Nc3ccc(N4CCN(C)CC4)cc3)nc2C2(CC2)C1=O [Compound 38, N-(4-methyl-3-(2'-((4-(4-methylpiperazin-1-yl)phenyl)amino)-7'-oxo-5'H-spiro[cyclopropane-1,8'-pyrido[4,3-d]pyrimidine]-6'(7'H)-yl)phenyl)-3-(trifluoromethyl)benzamide]
GI50 (HCT-116): < 1 µM
GI50 (SW480): < 1 µM
GI50 (SW620): < 1 µM
GI50 (AsPC-1): < 1 µM

Cc1ccc(NC(=O)c2cccc(C(F)(F)F)c2)cc1N1Cc2cnc(Nc3ccc(CN4CCN(C)CC4)cc3)nc2C2(CC2)C1=O [Compound 43, N-(4-methyl-3-(2'-((4-((4-methylpiperazin-1-yl)methyl)phenyl)amino)-7'-oxo-5'H-spiro[cyclopropane-1,8'-pyrido[4,3-d]pyrimidine]-6'(7'H)-yl)phenyl)-3-(trifluoromethyl)benzamide]
GI50 (HCT-116): < 1 µM
GI50 (AsPC-1): < 1 µM

Cc1ccc(NC(=O)c2cccc(C(F)(F)F)c2)cc1N1Cc2cnc(NO)nc2C2(CC2)C1=O [Compound 70, N-(3-(2'-(hydroxyamino)-7'-oxo-5'H-spiro[cyclopropane-1,8'-pyrido[4,3-d]pyrimidine]-6'(7'H)-yl)-4-methylphenyl)-3-(trifluoromethyl)benzamide]
IC50 (ACK1): 0.01 to 0.1 µM
